Test results from US11504383B2, “Crystalline forms of a Ryanodine receptor modulator and uses thereof” (ARMGO Pharma, Inc., priority 2021, dated 2022).
Entries after “also recorded” stand apart in the source; their conditions may differ. Blank lines part the entries; values can stand above or below the compound they belong to.

Tests used:
Assay type in all cases: physicochemical
[1] = Storage stability of the polymorphs followed by XRD
Method: The top panel depicts the polymorph at initiation and the bottom three panels depict the polymorph after 24 months. FIG. 5 Panel A: initial control; FIG. 5 Panel B: sample stored for 2 years in open bottle in stability chambers at 25° C./60% relative humidity (RH); FIG. 5 Panel C: sample stored for 2 years in closed bottle in stability chambers at 40° C./75% RH; FIG. 5 Panel D: sample stored for 2 years in open bottle in stability chambers at 40° C./75% RH.
The top panel depicts the polymorph at initiation and the bottom panels depict the polymorph after 3, 6, 12 and 24 months.

[2] = Thermogravimetric analysis (loss of mass before melting/degradation); conditions: 25° C. to 250° C. at about 10° C./minute
Method: Thermogravimetric analysis (TGA) was performed. A 10 to 20 mg of sample of a crystalline form of 4-[(7-methoxy-2,3-dihydro-1,4-benzothiazepin-4(5H)yl)methyl]benzoic acid hemifumarate was placed into an aluminum pan, with nitrogen purge. The sample was equilibrated at 25° C. in a temperature-controlled chamber. The sample was heated at a scan rate of about 10° C./minute to 250° C. under nitrogen purge. A TGA Q5000 thermogravimetric analysis instrument was used.

[3] = Dynamic vapor sorption (hygroscopicity); conditions: DVS, 25° C., 0-90% relative humidity
Method: Dynamic vapor sorption (DVS) analysis was performed by measuring mass variation of the crystalline form of 4-[(7-methoxy-2,3-dihydro-1,4-benzothiazepin-4(5H)yl)methyl]benzoic acid hemifumarate as a function of relative humidity using a DVS intrinsic instrument. A 5 mg to 10 mg of a sample of a crystalline form of 4-[(7-methoxy-2,3-dihydro-1,4-benzothiazepin-4(5H)yl)methyl]benzoic acid, hemifumarate was placed into a sample pan of a DVS intrinsic instrument at 25° C. under controlled humidity. The mass variation was recorded as a function of relative humidity.
Measurement of DVS comprised: (a) equilibrating a sample of the crystalline form at 25° C. and 50% relative humidity in a temperature-controlled and humidity controlled chamber until mass variation is less than 0.002% per minute for 6 hours; (b) increasing the relative humidity from 50% to 90% at a rate of 10% per hour; (c) equilibrating the sample at 90% relative humidity until mass variation of less than 0.002% per minute for 6 hours is observed; (d) decreasing the relative humidity from 90% to 0% at a rate of 10% per hour; (e) equilibrating the sample at 0% relative humidity until mass variation of less than 0.002% per minute for 6 hours is observed; and (f) increasing the relative humidity from 0% to 50% at a rate of 10% per hour.

[4] = Competitive slurry experiments mixing Form 1 and Form 2 in various solvents
Method: Competitive slurry experiments were performed at 15° C. (Table 5) or 40° C. (Table 6) by mixing Form 1 and Form 2 in various solvents in acetonitrile/water, acetone/water and methanol/water mixtures. […] (Table 5) or 40° C. (Table 6).

Storage time without any detectable conversion into Form 2 ([1]; XRD, FIG. 5): at least 24 months | Stability of the polymorph on storage (XRD, FIG. 5) ([1]; after 24 months, open bottle 25° C./60% RH, closed bottle 40° C./75% RH, open bottle 40° C./75% RH): stable | Loss of mass before melting degradation (TGA) [2]: about 1%
SMILES: COc1ccc2c(c1)CN(Cc1ccc(C(=O)O)cc1)CCS2.O=C(O)/C=C/C(=O)O [Form 1, 4-[(7-methoxy-2,3-dihydro-1,4-benzothiazepin-4(5H)yl)methyl]benzoic acid, hemifumarate]
Hygroscopicity [3]: slightly hygroscopic; also recorded: non-hygroscopic

XRD (form after competitive slurry) ([4]; 15° C. for 10 days, Acetone): Form 2 | XRD (form after competitive slurry) ([4]; 15° C. for 10 days, Acetone/water 30/70): Form 2 | XRD (form after competitive slurry) ([4]; 15° C. for 10 days, Acetone/water 90/10): Form 2 | XRD (form after competitive slurry) ([4]; 15° C. for 10 days, Acetone/water 96/4): Form 2 | XRD (form after competitive slurry) ([4]; 15° C. for 10 days, Acetone/water 98/2): Form 2 | XRD (form after competitive slurry) ([4]; 15° C. for 10 days, Acetonitrile): Acetonitrile solvate (Form 4) | XRD (form after competitive slurry) ([4]; 15° C. for 10 days, Acetonitrile/water 15/85): Acetonitrile solvate (Form 4) | XRD (form after competitive slurry) ([4]; 15° C. for 10 days, Acetonitrile/water 87/13): Acetonitrile solvate (Form 4) | XRD (form after competitive slurry) ([4]; 15° C. for 10 days, Acetonitrile/water 94/6): Acetonitrile solvate (Form 4) | XRD (form after competitive slurry) ([4]; 15° C. for 10 days, Acetonitrile/water 98/2): Acetonitrile solvate (Form 4) | XRD (form after competitive slurry) ([4]; 15° C. for 10 days, Methanol): Methanol solvate (Form 3) | XRD (form after competitive slurry) ([4]; 15° C. for 10 days, Methanol/water 20/80): Form 2 + Methanol solvate | XRD (form after competitive slurry) ([4]; 15° C. for 10 days, Methanol/water 50/50): Methanol solvate (Form 3) | XRD (form after competitive slurry) ([4]; 15° C. for 10 days, Methanol/water 70/30): Methanol solvate (Form 3) | XRD (form after competitive slurry) ([4]; 15° C. for 10 days, Methanol/water 95/5): Methanol solvate (Form 3) | XRD (form after competitive slurry) ([4]; 15° C. for 10 days, Water): Form 2 | XRD (form after competitive slurry) ([4]; 40° C. for 5 days, Acetone): Form 2 | XRD (form after competitive slurry) ([4]; 40° C. for 5 days, Acetone/water 30/70): Form 2 | XRD (form after competitive slurry) ([4]; 40° C. for 5 days, Acetone/water 90/10): Form 2 | XRD (form after competitive slurry) ([4]; 40° C. for 5 days, Acetone/water 96/4): Form 2 | XRD (form after competitive slurry) ([4]; 40° C. for 5 days, Acetone/water 98/2): Form 2 | XRD (form after competitive slurry) ([4]; 40° C. for 5 days, Acetonitrile): Acetonitrile solvate (Form 4) | XRD (form after competitive slurry) ([4]; 40° C. for 5 days, Acetonitrile/water 15/85): Acetonitrile solvate (Form 4) | XRD (form after competitive slurry) ([4]; 40° C. for 5 days, Acetonitrile/water 87/13): Acetonitrile solvate (Form 4) | XRD (form after competitive slurry) ([4]; 40° C. for 5 days, Acetonitrile/water 94/6): Acetonitrile solvate (Form 4) | XRD (form after competitive slurry) ([4]; 40° C. for 5 days, Acetonitrile/water 98/2): Acetonitrile solvate (Form 4) | XRD (form after competitive slurry) ([4]; 40° C. for 5 days, Methanol): Methanol solvate (Form 3) | XRD (form after competitive slurry) ([4]; 40° C. for 5 days, Methanol/water 20/80): Form 2 + Methanol solvate | XRD (form after competitive slurry) ([4]; 40° C. for 5 days, Methanol/water 50/50): Methanol solvate (Form 3) | XRD (form after competitive slurry) ([4]; 40° C. for 5 days, Methanol/water 70/30): Methanol solvate (Form 3) | XRD (form after competitive slurry) ([4]; 40° C. for 5 days, Methanol/water 95/5): Methanol solvate (Form 3) | XRD (form after competitive slurry) ([4]; 40° C. for 5 days, Water): Form 2 | Form obtained from slurry ([4]; acetone/water mixtures, all tested conditions): converted into Form 2 | Form obtained from slurry ([4]; methanol/water (20/80 v/v)): a mixture of Form 2 and methanol solvate
SMILES: COc1ccc2c(c1)CN(Cc1ccc(C(=O)O)cc1)CCS2.O=C(O)/C=C/C(=O)O [Form 1 and Form 2]
Form obtained from slurry ([4]; acetonitrile/water mixtures, all tested ratios, 15° C. or 40° C.): converted into the acetonitrile solvate (Form 4) | Form obtained from slurry ([4]; methanol/water mixtures, all tested ratios except 20/80 v/v, 15° C. or 40° C.): converted into the methanol solvate (Form 3)
